# Measurements taken from ChEMBL document CHEMBL3112514, “Insights into antioxidant activity of 1-adamantylthiopyridine analogs using multiple linear regression” (Eur J Med Chem, 2014).
# Columns and labels:
# [1] = Antioxidant activity assessed as inhibition of photoreduction of nitro blue tetrazolium after 7 mins by SOD activity assay; format: functional; parameters: concentration or dose not given beside the values
# [2] = tested on: Radical scavenging activity; test: Antioxidant activity assessed as DPPH radical scavenging activity; format: functional; parameters: concentration or dose not given beside the values
SMILES,inhibition [1],Activity [2]
Oc1ccc(SC23CC4CC(CC(C4)C2)C3)nc1,45.5%,0.3%
N#Cc1cccnc1SC12CC3CC(CC(C3)C1)C2,17.3%,0.3%
NC(=O)c1cccnc1SC12CC3CC(CC(C3)C1)C2,15.4%,0.57%
CC(=O)N(C(C)=O)c1cccnc1SC12CC3CC(CC(C3)C1)C2,,17.7%
O=C(O)c1cccnc1SC12CC3CC(CC(C3)C1)C2,15.4%,33.2%
Brc1cccnc1SC12CC3CC(CC(C3)C1)C2,17.2%,21.1%
CCOc1cccnc1SC12CC3CC(CC(C3)C1)C2,31.8%,14.2%
Brc1cncc(SC23CC4CC(CC(C4)C2)C3)c1,53.3%,17.1%
CC(=O)Oc1cccnc1SC12CC3CC(CC(C3)C1)C2,16.8%,7.03%
